Data from PubChem BioAssay (NCI).
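Five compound concentrations were applied to cells in 96-well plates for 48 hours; endpoints were derived by simple linear interpolation of the resulting dose-response curve. GI50 is the concentration that inhibits growth by half. TGI is the concentration that stops growth completely.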

Legend:
Experiment in all cases: NCI-60 cell line screen, 48 h
[1] = tested on: 786-0 renal
[2] = tested on: A498 renal
[3] = tested on: A549 NSCLC
[4] = tested on: ACHN renal
[5] = tested on: BT-549 breast
[6] = tested on: CAKI-1 renal
[7] = tested on: CCRF-CEM leukemia
[8] = tested on: COLO 205 colon
[9] = tested on: DU-145 prostate
[10] = tested on: EKVX NSCLC
[11] = tested on: HCC-2998 colon
[12] = tested on: HCT-116 colon
[13] = tested on: HCT-15 colon
[14] = tested on: HL-60(TB) leukemia
[15] = tested on: HOP-62 NSCLC
[16] = tested on: HOP-92 NSCLC
[17] = tested on: HS 578T breast
[18] = tested on: HT29 colon
[19] = tested on: IGROV1 ovarian
[20] = tested on: K-562 leukemia
[21] = tested on: KM12 colon
[22] = tested on: LOX IMVI melanoma
[23] = tested on: M14 melanoma
[24] = tested on: MALME-3M melanoma
[25] = tested on: MCF7 breast
[26] = tested on: MDA-MB-231 breast
[27] = tested on: MDA-MB-435
[28] = tested on: MOLT-4 leukemia
[29] = tested on: NCI-H226 lung
[30] = tested on: NCI-H23 lung
[31] = tested on: NCI-H460 lung
[32] = tested on: NCI-H522 lung
[33] = tested on: NCI/ADR-RES ovarian
[34] = tested on: OVCAR-3 ovarian
[35] = tested on: OVCAR-4 ovarian
[36] = tested on: OVCAR-5 ovarian
[37] = tested on: OVCAR-8 ovarian
[38] = tested on: PC-3 prostate
[39] = tested on: RPMI-8226 leukemia
[40] = tested on: RXF 393 renal
[41] = tested on: SF-268 CNS
[42] = tested on: SF-295 CNS
[43] = tested on: SF-539 CNS
[44] = tested on: SK-MEL-2 melanoma
[45] = tested on: SK-MEL-28 melanoma
[46] = tested on: SK-MEL-5 melanoma
[47] = tested on: SK-OV-3 ovarian
[48] = tested on: SN12C renal
[49] = tested on: SNB-19 CNS
[50] = tested on: SNB-75 CNS
[51] = tested on: SR leukemia
[52] = tested on: SW-620 colon
[53] = tested on: T-47D breast
[54] = tested on: TK-10 renal
[55] = tested on: U251 CNS
[56] = tested on: UACC-257 melanoma
[57] = tested on: UACC-62 melanoma
[58] = tested on: UO-31 renal

Question: What does the source list for `c1ccc(-c2nnc(-c3ccccn3)s2)nc1`?
Answer: GI50 [1]: > 100 µM; TGI [1]: > 100 µM; GI50 [2]: > 100 µM; TGI [2]: > 100 µM; GI50 [3]: > 100 µM; TGI [3]: > 100 µM; GI50 [4]: > 100 µM; TGI [4]: > 100 µM; GI50 [5]: > 100 µM; TGI [5]: > 100 µM; GI50 [6]: > 100 µM; TGI [6]: > 100 µM; GI50 [7]: > 100 µM; TGI [7]: > 100 µM; GI50 [8]: > 100 µM; TGI [8]: > 100 µM; GI50 [9]: > 100 µM; TGI [9]: > 100 µM; GI50 [10]: > 100 µM; TGI [10]: > 100 µM; GI50 [11]: > 100 µM; TGI [11]: > 100 µM; GI50 [12]: > 100 µM; TGI [12]: > 100 µM; GI50 [13]: 83.7 µM; TGI [13]: > 100 µM; GI50 [14]: > 100 µM; TGI [14]: > 100 µM; GI50 [15]: > 100 µM; TGI [15]: > 100 µM; GI50 [16]: 7.46 µM; TGI [16]: > 100 µM; GI50 [17]: > 100 µM; TGI [17]: > 100 µM; GI50 [18]: > 100 µM; TGI [18]: > 100 µM; GI50 [19]: 27.3 µM; TGI [19]: > 100 µM; GI50 [20]: > 100 µM; TGI [20]: > 100 µM; GI50 [21]: > 100 µM; TGI [21]: > 100 µM; GI50 [22]: > 100 µM; TGI [22]: > 100 µM; GI50 [23]: > 100 µM; TGI [23]: > 100 µM; GI50 [24]: > 100 µM; TGI [24]: > 100 µM; GI50 [25]: 0.788 µM; TGI [25]: > 100 µM; GI50 [26]: 72.5 µM; TGI [26]: > 100 µM; GI50 [27]: > 100 µM; TGI [27]: > 100 µM; GI50 [28]: > 100 µM; TGI [28]: > 100 µM; GI50 [29]: > 100 µM; TGI [29]: > 100 µM; GI50 [30]: > 100 µM; TGI [30]: > 100 µM; GI50 [31]: > 100 µM; TGI [31]: > 100 µM; GI50 [32]: > 100 µM; TGI [32]: > 100 µM; GI50 [33]: > 100 µM; TGI [33]: > 100 µM; GI50 [34]: > 100 µM; TGI [34]: > 100 µM; GI50 [35]: > 100 µM; TGI [35]: > 100 µM; GI50 [36]: > 100 µM; TGI [36]: > 100 µM; GI50 [37]: > 100 µM; TGI [37]: > 100 µM; GI50 [38]: > 100 µM; TGI [38]: > 100 µM; GI50 [39]: > 100 µM; TGI [39]: > 100 µM; GI50 [40]: > 100 µM; TGI [40]: > 100 µM; GI50 [41]: > 100 µM; TGI [41]: > 100 µM; GI50 [42]: > 100 µM; TGI [42]: > 100 µM; GI50 [43]: > 100 µM; TGI [43]: > 100 µM; GI50 [44]: > 100 µM; TGI [44]: > 100 µM; GI50 [45]: > 100 µM; TGI [45]: > 100 µM; GI50 [46]: > 100 µM; TGI [46]: > 100 µM; GI50 [47]: > 100 µM; TGI [47]: > 100 µM; GI50 [48]: > 100 µM; TGI [48]: > 100 µM; GI50 [49]: > 100 µM; TGI [49]: > 100 µM; GI50 [50]: 72.9 µM; TGI [50]: > 100 µM; GI50 [51]: > 100 µM; TGI [51]: > 100 µM; GI50 [52]: > 100 µM; TGI [52]: > 100 µM; GI50 [53]: 5.32 µM; TGI [53]: > 100 µM; GI50 [54]: > 100 µM; TGI [54]: > 100 µM; GI50 [55]: > 100 µM; TGI [55]: > 100 µM; GI50 [56]: > 100 µM; TGI [56]: > 100 µM; GI50 [57]: > 100 µM; TGI [57]: > 100 µM; GI50 [58]: 22.3 µM; TGI [58]: > 100 µM
